The values that follow come from PubChem BioAssay (NCI).

Test systems include DU-145 prostate; MDA-N; CAKI-1 renal; 786-0 renal; P388 leukemia; P388/ADR leukemia; SN12K1 renal; LXFL 529 NSCLC; RXF-631 renal.
What all share (assay): NCI tumour cell line growth inhibition, 48 h

Molecules are shown by their SMILES.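 In this assay, cells in 96-well plates receive the compound at five concentrations for 48 hours. Endpoints are linearly interpolated between the surrounding concentrations. GI50: concentration for 50% inhibition of growth. TGI: total growth inhibition.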

Turning to `O=C1OC(c2ccccc2)=NC1c1ccccc1` (centres undefined), the TGI in the test with DU-145 prostate, with MDA-N, in the test on CAKI-1 renal and in the test on 786-0 renal was over 100 µM throughout.
On to `OCC#CCNCl`, for which the TGI in the test with P388 leukemia, in the test with P388/ADR leukemia and with SN12K1 renal was over 100 µM throughout.
Consider `FC(F)(F)c1ccc2c(c1)N(CCCNCCN1CCOCC1)c1ccccc1S2`, for which, in the test on LXFL 529 NSCLC, the TGI stood at 25.6 µM.
As for `O=[N+]([O-])C(=C/c1ccccc1)/C(=C\c1ccccc1)[N+](=O)[O-]`, the TGI was determined as 29.7 µM in the test on DU-145 prostate, 33.1 µM in the test on MDA-N and 29 µM in the test with CAKI-1 renal.
Turning to `C/C(=C/C(=O)Nc1ccccc1)Nc1onc(C)c1C`, the TGI with P388 leukemia and in the test with SN12K1 renal was over 100 µM each time.
As for `OCC1O[C@H](O[C@@H]2CCCN3CC(O)C(O)[C@@H]23)C(O)C(O)C1O` (some centres undefined), the TGI in the test with RXF-631 renal, in the test with CAKI-1 renal and in the test on LXFL 529 NSCLC was over 100 µM throughout.
Turning to `Cc1ccc(/C=C2\Sc3scc(-c4ccccc4)[n+]3C2=O)cc1`, the TGI with DU-145 prostate was over 65.9 µM; with MDA-N, over 67.1 µM; in the test with CAKI-1 renal, 33.4 µM; with 786-0 renal, over 56 µM.
As for `Nc1nc(Nc2ccc(Cl)c(Cl)c2)nc2nc[nH]c12`, the TGI in the test with DU-145 prostate was found to be 21.6 µM; in the test with MDA-N, 33.5 µM; in the test with CAKI-1 renal, 25.1 µM; in the test with 786-0 renal, 31.3 µM.
`O=C1C(Cl)N(c2c(Cl)cccc2Cl)C1c1c[nH]c2ccccc12` (centres undefined) yielded a TGI with LXFL 529 NSCLC of over 100 µM.
Turning to `COc1cc(OC2OC(CO)C(O)C(O)C2O)c2c(O)c3c(=O)cc(C)oc3cc2c1` (centres undefined), the TGI in the test on DU-145 prostate and with CAKI-1 renal was over 100 µM each time.
With `CCOC(=O)Cc1cc(OC)c(OC)cc1/C(Cl)=C(\CO)c1ccc(OC)c(OC)c1`, the TGI in the test on RXF-631 renal and in the test on CAKI-1 renal was over 100 µM throughout.
Regarding `C[N+](C)(CCCCCC[N+](C)(C)CCCN1C(=O)c2cccc3cccc(c23)C1=O)CCCN1C(=O)c2cccc3cccc(c23)C1=O`, the TGI in the test on DU-145 prostate, in the test with MDA-N and in the test on CAKI-1 renal was over 100 µM in each case.
On to `CCNC(=O)C(C)C1CCC2(C)C=CC(=O)C(C)=C2C1O` (centres undefined), for which the TGI with P388 leukemia, with P388/ADR leukemia, with CAKI-1 renal and in the test on SN12K1 renal was over 100 µM in each case.
`O=S(O)CCCCCSSc1ccccc1` displayed a TGI with LXFL 529 NSCLC of 37.9 µM.
Regarding `O=C(NN1C(=O)C(Cl)C1c1ccccc1O)c1ccccc1O` (centres undefined), the TGI with LXFL 529 NSCLC is over 100 µM.
As for `N#C/C(=C\c1ccncc1)c1csc2ccccc12`, the TGI is 39.2 µM in the test with P388 leukemia, 25.2 µM with P388/ADR leukemia, over 88 µM in the test on CAKI-1 renal and over 77.7 µM in the test on SN12K1 renal.
For the compound `CCCCCC(=O)N[C@@H](c1ccco1)[C@@H](O)C(=O)O[C@H]1C[C@@]2(O)[C@@H](OC(=O)c3ccccc3)[C@@H]3[C@]4(OC(C)=O)CO[C@@H]4C[C@H](O)[C@@]3(C)C(=O)[C@H](OC(C)=O)C(=C1C)C2(C)C`, the TGI with DU-145 prostate worked out at 0.0101 µM. Besides, the GI50 in the test with CAKI-1 renal is 0.329 µM.
